# Tests used:
# [1] = test system: corn; experiment: Test A preemergence; assay type: in vivo, Zea mays; details: 0 to 100 scale
# Method in brief: (§1)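 Plants were grown in loam and sand and treated preemergence or postemergence (one- to two-leaf stage, 2–10 cm) with compound in solvent plus surfactant. Response was scored against untreated controls after 10 greenhouse days, where 0 means no effect and 100 complete control.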
# [2] = test system: soybean; experiment: Test A postemergence; assay type: in vivo, Glycine max; details: postemergence, 10 days; for Plant response rating, Soybean: 500 g ai/ha, visual injury, 0 to 100 scale (0 no effect, 100 complete control)
# Method in brief: as §1
# [3] = test system: pigweed, palmer; experiment: Test A postemergence; assay type: in vivo, Amaranthus palmeri; details: postemergence, 10 days; for Pigweed, Palmer plant response rating: 125 g ai/ha, 0 to 100 scale, 0 no effect, 100 complete control; for Plant response rating, Pigweed, Palmer: 500 g ai/ha, visual injury, 0 to 100 scale (0 no effect, 100 complete control)
# Method in brief: as §1
# [4] = test system: pigweed, palmer; experiment: Test A preemergence; assay type: in vivo, Amaranthus palmeri; details: 0 to 100 scale
# Method in brief: as §1
# [5] = test system: kochia; experiment: Test A preemergence; assay type: in vivo, Bassia scoparia; details: 0 to 100 scale
# Method in brief: as §1
# [6] = test system: oat, wild; experiment: Test A preemergence; assay type: in vivo, Avena fatua; details: 0 to 100 scale
# Method in brief: as §1
# [7] = test system: ragweed; experiment: Test A postemergence; assay type: in vivo, Ambrosia artemisiifolia; details: postemergence, 10 days; for Ragweed plant response rating: 125 g ai/ha, 0 to 100 scale, 0 no effect, 100 complete control; for Plant response rating, Ragweed: 500 g ai/ha, visual injury, 0 to 100 scale (0 no effect, 100 complete control)
# Method in brief: as §1
# [8] = test system: blackgrass; experiment: Test A preemergence; assay type: in vivo, Alopecurus myosuroides; details: 0 to 100 scale
# Method in brief: as §1
# [9] = test system: ryegrass, Italian; experiment: Test A preemergence; assay type: in vivo, Lolium multiflorum; details: 0 to 100 scale
# Method in brief: as §1
# [10] = test system: foxtail, giant; experiment: Test A preemergence; assay type: in vivo, Setaria faberi; details: 0 to 100 scale
# Method in brief: as §1
# [11] = test system: foxtail, giant; experiment: Test A postemergence; assay type: in vivo, Setaria faberi; details: postemergence, 10 days; for Foxtail, Giant plant response rating: 125 g ai/ha, 0 to 100 scale, 0 no effect, 100 complete control; for Plant response rating, Foxtail, Giant: 500 g ai/ha, visual injury, 0 to 100 scale (0 no effect, 100 complete control)
# Method in brief: as §1
# [12] = test system: soybean; experiment: Test A preemergence; assay type: in vivo, Glycine max; details: 0 to 100 scale
# Method in brief: as §1
# [13] = test system: ducksalad; experiment: Test B flooded paddy test; assay type: in vivo, Heteranthera limosa; details: 250 g ai/ha, Flood, 13 days, 0 to 100 scale (0 no effect, 100 complete control)
# Method in brief: (§2)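 Species grown to 2-leaf stage; pots flooded 3 cm above soil and compound applied directly to paddy water, depth maintained throughout. After 13 days in greenhouse, plants visually rated against controls on 0–100 scale (0 no effect, 100 complete control); dash means no result.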
# [14] = test system: corn; experiment: Test A postemergence; assay type: in vivo, Zea mays; details: postemergence, 10 days; for Corn plant response rating: 125 g ai/ha, 0 to 100 scale, 0 no effect, 100 complete control; for Plant response rating, Corn: 500 g ai/ha, visual injury, 0 to 100 scale (0 no effect, 100 complete control)
# Method in brief: as §1
# [15] = test system: ragweed; experiment: Test A preemergence; assay type: in vivo, Ambrosia artemisiifolia; details: 0 to 100 scale
# Method in brief: as §1
# [16] = test system: galium; experiment: Test A postemergence; assay type: in vivo, Galium aparine; details: postemergence, 10 days; for Galium plant response rating: 125 g ai/ha, 0 to 100 scale, 0 no effect, 100 complete control; for Plant response rating, Galium: 500 g ai/ha, visual injury, 0 to 100 scale (0 no effect, 100 complete control)
# Method in brief: as §1
# [17] = test system: kochia; experiment: Test A postemergence; assay type: in vivo, Bassia scoparia; details: postemergence, 10 days; for Kochia plant response rating: 125 g ai/ha, 0 to 100 scale, 0 no effect, 100 complete control; for Plant response rating, Kochia: 500 g ai/ha, visual injury, 0 to 100 scale (0 no effect, 100 complete control)
# Method in brief: as §1
# [18] = test system: sedge, umbrella; experiment: Test B flooded paddy test; assay type: in vivo, Cyperus difformis; details: 250 g ai/ha, Flood, 13 days, 0 to 100 scale (0 no effect, 100 complete control)
# Method in brief: as §2
# [19] = test system: wheat; experiment: Test A preemergence; assay type: in vivo, Triticum aestivum; details: 0 to 100 scale
# Method in brief: as §1
# [20] = test system: ryegrass, Italian; experiment: Test A postemergence; assay type: in vivo, Lolium multiflorum; details: postemergence, 10 days; for Ryegrass, Italian plant response rating: 125 g ai/ha, 0 to 100 scale, 0 no effect, 100 complete control; for Plant response rating, Ryegrass, Italian: 500 g ai/ha, visual injury, 0 to 100 scale (0 no effect, 100 complete control)
# Method in brief: as §1
# [21] = test system: oat, wild; experiment: Test A postemergence; assay type: in vivo, Avena fatua; details: postemergence, 10 days; for Oat, Wild plant response rating: 125 g ai/ha, 0 to 100 scale, 0 no effect, 100 complete control; for Plant response rating, Oat, Wild: 500 g ai/ha, visual injury, 0 to 100 scale (0 no effect, 100 complete control)
# Method in brief: as §1
# [22] = test system: barnyardgrass; experiment: Test A preemergence; assay type: in vivo, Echinochloa crusgalli; details: visual injury after 10 days, 0 to 100 scale, 0 is no effect, 100 is complete control
# Method in brief: as §1
# [23] = test system: wheat; experiment: Test A postemergence; assay type: in vivo, Triticum aestivum; details: postemergence, 10 days; for Wheat plant response rating: 125 g ai/ha, 0 to 100 scale, 0 no effect, 100 complete control; for Plant response rating, Wheat: 500 g ai/ha, visual injury, 0 to 100 scale (0 no effect, 100 complete control)
# Method in brief: as §1
# [24] = test system: horseweed; experiment: Test A postemergence; assay type: in vivo, Erigeron canadensis; details: postemergence, 10 days; for Horseweed plant response rating: 125 g ai/ha, 0 to 100 scale, 0 no effect, 100 complete control; for Plant response rating, Horseweed: 500 g ai/ha, visual injury, 0 to 100 scale (0 no effect, 100 complete control)
# Method in brief: as §1
# [25] = test system: barnyardgrass; experiment: Test B flooded paddy test; assay type: in vivo, Echinochloa crus-galli; details: 250 g ai/ha, Flood, 13 days, 0 to 100 scale (0 no effect, 100 complete control)
# Method in brief: as §2
# [26] = test system: rice; experiment: Test B flooded paddy test; assay type: in vivo, Oryza sativa; details: 250 g ai/ha, Flood, 13 days, 0 to 100 scale (0 no effect, 100 complete control)
# Method in brief: as §2
# [27] = test system: blackgrass; experiment: Test A postemergence; assay type: in vivo, Alopecurus myosuroides; details: postemergence, 10 days; for Blackgrass plant response rating: 125 g ai/ha, 0 to 100 scale, 0 no effect, 100 complete control; for Plant response rating, Blackgrass: 500 g ai/ha, visual injury, 0 to 100 scale (0 no effect, 100 complete control)
# Method in brief: as §1
# [28] = test system: barnyardgrass; experiment: Test A postemergence; assay type: in vivo, Echinochloa crusgalli; details: postemergence, 10 days; for Barnyardgrass plant response rating: 125 g ai/ha, 0 to 100 scale, 0 no effect, 100 complete control; for Plant response rating, Barnyardgrass: 500 g ai/ha, visual injury, 0 to 100 scale (0 no effect, 100 complete control)
# Method in brief: as §1
# [29] = 500 g ai/ha, visual injury after 10 days, 0 is no effect, 100 is complete control
# [30] = 125 g ai/ha, visual injury after 10 days, 0 is no effect, 100 is complete control
smiles,measurement,setting,value
CC(C)c1ncn(-c2ccc(OCC(F)(F)F)c(C(=O)N3C[C@H](C)Oc4c(Cl)cccc43)c2)n1 [Compound 141],"Plant response rating, Corn",[1]; 125 g ai/ha,10
same,"Plant response rating, Corn",[1]; [29],10
same,Soybean plant response rating,"[2]; 125 g ai/ha, 0 to 100 scale, 0 no effect, 100 complete control",100
same,"Plant response rating, Soybean",[2],100
same,"Pigweed, Palmer plant response rating",[3],70
same,"Plant response rating, Pigweed, Palmer",[3],100
same,"Plant response rating, Pigweed, Palmer",[4]; 125 g ai/ha,100
same,"Plant response rating, Pigweed, Palmer",[4]; [29],100
same,"Plant response rating, Kochia",[5]; 125 g ai/ha,0
same,"Plant response rating, Kochia",[5]; [29],50
same,"Plant response rating, Oat, Wild",[6]; 125 g ai/ha,60
same,"Plant response rating, Oat, Wild",[6]; [29],80
same,Ragweed plant response rating,[7],30
same,"Plant response rating, Ragweed",[7],60
same,"Plant response rating, Blackgrass",[8]; 125 g ai/ha,20
same,"Plant response rating, Blackgrass",[8]; [29],70
same,"Plant response rating, Ryegrass, Italian",[9]; 125 g ai/ha,90
same,"Plant response rating, Ryegrass, Italian",[9]; [29],100
same,"Plant response rating, Foxtail, Giant",[10]; 125 g ai/ha,90
same,"Plant response rating, Foxtail, Giant",[10]; [29],100
same,"Foxtail, Giant plant response rating",[11],60
same,"Plant response rating, Foxtail, Giant",[11],100
same,"Plant response rating, Soybean",[12]; 125 g ai/ha,80
same,"Plant response rating, Soybean",[12]; [29],80
same,"Plant response rating, Ducksalad",[13],30
same,Corn plant response rating,[14],90
same,"Plant response rating, Corn",[14],90
same,"Plant response rating, Ragweed",[15]; 125 g ai/ha,0
same,"Plant response rating, Ragweed",[15]; [29],50
same,Galium plant response rating,[16],80
same,"Plant response rating, Galium",[16],100
same,Kochia plant response rating,[17],80
same,"Plant response rating, Kochia",[17],90
same,"Plant response rating, Sedge, Umbrella",[18],95
same,"Plant response rating, Wheat",[19]; 125 g ai/ha,20
same,"Plant response rating, Wheat",[19]; [29],30
same,"Ryegrass, Italian plant response rating",[20],30
same,"Plant response rating, Ryegrass, Italian",[20],90
same,"Oat, Wild plant response rating",[21],10
same,"Plant response rating, Oat, Wild",[21],20
same,"Plant response rating, Barnyardgrass",[22]; 125 g ai/ha,70
same,"Plant response rating, Barnyardgrass",[22]; 500 g ai/ha,90
same,Wheat plant response rating,[23],10
same,"Plant response rating, Wheat",[23],20
same,Horseweed plant response rating,[24],0
same,"Plant response rating, Horseweed",[24],0
same,"Plant response rating, Barnyardgrass",[25],25
same,"Plant response rating, Rice",[26],10
same,Blackgrass plant response rating,[27],30
same,"Plant response rating, Blackgrass",[27],80
same,Barnyardgrass plant response rating,[28],30
same,"Plant response rating, Barnyardgrass",[28],70
CC(C)c1ncn(-c2ccc(OC(F)(F)F)c(C(=O)N3C[C@H](C)Oc4c(Cl)cccc43)c2)n1 [Compound 111],"Plant response rating, Corn",[1]; [30],30
same,"Plant response rating, Corn",[1]; [29],40
same,"Plant response rating, Soybean",[2],100
same,"Pigweed, Palmer plant response rating",[3],70
same,"Plant response rating, Pigweed, Palmer",[3],90
same,"Plant response rating, Pigweed, Palmer",[4]; [30],90
same,"Plant response rating, Pigweed, Palmer",[4]; [29],100
same,"Plant response rating, Kochia",[5]; [30],80
same,"Plant response rating, Kochia",[5]; [29],90
same,"Plant response rating, Oat, Wild",[6]; [30],70
same,"Plant response rating, Oat, Wild",[6]; [29],90
same,Ragweed plant response rating,[7],60
same,"Plant response rating, Ragweed",[7],70
same,"Plant response rating, Blackgrass",[8]; [30],30
same,"Plant response rating, Blackgrass",[8]; [29],70
same,"Plant response rating, Ryegrass, Italian",[9]; [30],70
same,"Plant response rating, Ryegrass, Italian",[9]; [29],100
same,"Plant response rating, Foxtail, Giant",[10]; [30],100
same,"Plant response rating, Foxtail, Giant",[10]; [29],100
same,"Foxtail, Giant plant response rating",[11],90
same,"Plant response rating, Foxtail, Giant",[11],90
same,"Plant response rating, Soybean",[12]; [30],70
same,"Plant response rating, Soybean",[12]; [29],100
same,"Plant response rating, Ducksalad",[13],65
same,Corn plant response rating,[14],40
same,"Plant response rating, Corn",[14],80
same,"Plant response rating, Ragweed",[15]; [30],20
same,"Plant response rating, Ragweed",[15]; [29],90
same,Galium plant response rating,[16],100
same,"Plant response rating, Galium",[16],100
same,Kochia plant response rating,[17],80
same,"Plant response rating, Kochia",[17],100
same,"Plant response rating, Sedge, Umbrella",[18],98
same,"Plant response rating, Wheat",[19]; [30],60
same,"Plant response rating, Wheat",[19]; [29],90
same,"Ryegrass, Italian plant response rating",[20],30
same,"Plant response rating, Ryegrass, Italian",[20],60
same,"Oat, Wild plant response rating",[21],40
same,"Plant response rating, Oat, Wild",[21],50
same,"Plant response rating, Barnyardgrass",[22]; 125 g ai/ha,90
same,"Plant response rating, Barnyardgrass",[22]; 500 g ai/ha,100
same,Wheat plant response rating,[23],10
same,"Plant response rating, Wheat",[23],40
same,Horseweed plant response rating,[24],10
same,"Plant response rating, Horseweed",[24],50
same,"Plant response rating, Barnyardgrass",[25],55
same,"Plant response rating, Rice",[26],0
same,Blackgrass plant response rating,[27],40
same,"Plant response rating, Blackgrass",[27],50
same,Barnyardgrass plant response rating,[28],30
same,"Plant response rating, Barnyardgrass",[28],80
